Laboratory results taken from patent publication US20250057793A1, “BENZOIC ACID SALTS FOR TREATMENT OF NERVOUS SYSTEM INJURIES AND DISORDERS” (The United States Government as represented by the …, priority 2021, published 2025).
Entries after “also recorded” stand apart in the source; their conditions may differ.

Assays:
CCI-induced TBI mice [1] = test: Lesion volume in CCI-induced mice (Cavalieri stereology); format: in vivo, mouse; conditions: for total lesion volume / size of lesion cavity: 21 days post-injury
Procedure: FIG. 5C is a plot showing lesion size in the experimental conditions. Lesion size was quantitatively measured in control mice, untreated CCI injured mice, NaB treated CCI-mice and NaFO-treated CCI-mice at 21 days post-injury. Statistical analyses were performed with Student's t-test in the injured side of the brain [^ap<0.001 (5.623×10^−7) vs control; ^bp<0.001 (=0.001) vs CCI injury].
FIGS. 10A-10C. Decrease in lesion volume in TBI mice by GTB treatment. […] FIG. 10A. […] FIG. 10C. Lesion volume was quantified in all groups of mice. Statistical analyses were performed with two way ANOVA and expressed as mean±SD to compare the lesion volume between unlesioned and lesioned side of the brain.
The estimation of lesion volume was performed based on the Cavalieri method of unbiased stereology using the StereoInvestigator software (MicroBright Biosciences, USA). Both the ipsilateral and contralateral hemisphere of brain volumes were determined using the Cavalieri estimator with a 1 mm grid spacing 1 mm. Every fourth section was analyzed beginning from a random start point. Lesion volume was estimated by subtracting the volume of the ipsilateral hemisphere from that of the contralateral hemi-sphere. Then the volume of lesion cavity estimated in brain section of untreated mice was compared with lesion volume of brain sections of drug treated mice.

[2] = tested on: mice with TBI induced by CCI; test: Open field behavior in TBI mice; format: in vivo, mouse; conditions: 50 mg/kg/day oral; for overall movements / all open-field parameters (heat map, distance, velocity, center frequency, rearing): 21 day post-injury
Procedure: The performance of animals in open field test was analyzed as described in earlier studies. Briefly, each animal was allowed to move freely to explore an open field arena designed with a square shaped wooden floor measuring 40×40 cm, with walls 30 cm high for 5 min. A […] (Basler Gen I Cam—Basler acA 1300-60) connected to a Noldus computer system was fixed in top facing-down on the open field arena. Each mouse was placed individually on center of the arena and the performance was monitored by the live video tracking system. The central area was arbitrarily defined as a square of 20×20 cm ([…]).

CCI-injured mice [3] = test: Rotarod test in CCI-injured mice; format: in vivo, mouse; conditions: 50 mg/kg/day oral
Procedure: The forehindlimb motor coordination and balance in animals was observed using the rotarod test as described in earlier studies. Briefly, each mouse was placed on the confined section of the rod and trial was initiated with a smooth increase in speed from 4 rpm to 40 rpm for 5 mins. […] The latency to fall was measured in seconds and used for the analysis. Following the CCI injury, each mouse performed the task three trials during the testing sessions and the average score on these three trials was used as the individual rotarod score. Each trial on the rod was terminated when the mice fell off the rod or held on to the rod by hanging and completed improper revolutions.

CCI-injured mice [4] = test: Tail suspension test (depression-like behavior) in CCI-injured mice; format: in vivo, mouse; conditions: 50 mg/kg/day oral
Procedure: Mice were subjected to the tail suspension test using a methodology as described in earlier studies. The mice were gently hung upside down by the tail using the non-toxic adhesive tape 50 cm above the floor for 6 mins. Immobility time was defined as the period of time during which the mice only hung passively, without any active movements. An increased immobility time is defined as a depression-like behavior.

CCI-injured mice [5] = test: Beam runway / beam walking in CCI-injured mice; format: in vivo, mouse; conditions: for gait movement on beam runway (steps, time taken, foot slips): 7 day post-injury
Excerpt: The beam runway was made of smooth wooden material and measured 65 cm length×0.7 cm breadth×4 cm height. A black box with an opening was fixed at one end and an aversive stimulus (bright lamp) at the other end of beam. This test was used to evaluate the complex coordination and balance of mice while traversing the beam and we performed the procedure as described in earlier studies. The mouse was placed on the beam near the light source and the light was turned ‘on’. This makes the animal move into the box to avoid the aversive stimulus, which was then turned off. Six repetitions were performed with a 2 mins resting period inside the box. The parameters measured were the time taken (sec) to reach the box and the number of steps with contralateral limb drag/slips. An error was considered whenever the paw slipping on the beam and the number of slips were counted. The beam walk analysis was performed by an observer blinded to the treatment at 7th and 21st postoperative day.

CCI-injured mice [6] = test: Grid runway in CCI-injured mice; format: in vivo, mouse; conditions: for gait movement on grid runway (steps, time taken, foot misplacement): 7 day post-injury
Excerpt: The grid runway (65 cm length×8 cm breadth×1 cm intervals) made of parallel grid bars with interbar intervals of 1 cm apart and grid were kept above the surface on a table during the testing session. The soft padding was positioned under the grid run-way in the event for protection to avoid serious injury, if the animal falls from the grid. Each mouse was allowed to walk freely on grid and the time taken and number of steps to cross the runway was noted. Each successful foot placement on grid was recorded as a step. However, an error was considered whenever the paw slips through the grid or the paw misses a bar and extends downwards through the plane of bars. The locomotor behavior of animal on grid was evaluated by an observer blinded to the treatment on 7th and 21st day after CCI injury.

TBI mice [7] = test: Barnes maze test in TBI mice; format: in vivo, mouse; conditions: 50 mg/kg/day oral; for Barnes maze latency (time taken to find the target hole) / Barnes maze number of errors: 21 days post-injury
Procedure: The Barnes maze test was performed as described in our earlier studies. Briefly, the mice were initially trained for 2 consecutive days followed by examination on day 3. After each training session, maze and escape tunnel were thoroughly cleaned with a mild detergent to avoid instinctive odor avoidance due to mouse's odor from the familiar object. On day 3, a video camera (Basler Gen I Cam—Basler acA 1300-60) connected to a Noldus computer system was placed above the maze and was illuminated with high voltage light that generated enough light and heat to motivate animals to enter into the escape tunnel. The performance was monitored by the video tracking system (Noldus System). Cognitive behavior parameters were examined by measuring latency (duration before all four paws were on the floor of the escape box) and errors (incorrect response before all four paws were on the floor of the escape box).

TBI mice [8] = test: T-maze in TBI mice; format: in vivo, mouse; conditions: 21 days post-injury, 50 mg/kg/day oral
Procedure: Mice were initially habituated in the T-maze for 2 days under food-deprived conditions. Food reward was provided for at least 5 times over a 10 mins period of training. T-maze was cleaned with mild detergent solution between each testing session, so as to minimize the animal's ability to use any olfactory clues. The food-reward side was always associated with a visual cue. Each time the animal consumed food-reward and it was considered as a positive turn.

CCI-induced TBI mice [9] = test: Glial activation and iNOS in brain of CCI-induced TBI mice (immunofluorescence, Western blot); conditions: for activation of astrocytes / astroglial inflammation in vivo / microglial activation in vivo / iNOS / iNOS-positive cells / GFAP-positive astrocytes / Iba1-positive microglia: cortex and hippocampus; for activation of astrocytes / astroglial inflammation in vivo / microglial activation in vivo: 7 days of treatment, 50 mg/kg/day oral; for iNOS / iNOS-positive cells / level of iNOS protein / expression of iNOS (Western blot) / protein level of GFAP (Western blot) / protein level of Iba1 (Western blot): day 7, 50 mg/kg/day oral; for GFAP-positive astrocytes / Iba1-positive microglia: day 7 post-injury, 50 mg/kg/day oral from 24 h after CCI; for level of iNOS protein / expression of iNOS (Western blot) / protein level of GFAP (Western blot) / protein level of Iba1 (Western blot): hippocampus
[10] = 21st day of CCI injury, 50 mg/kg/day oral gavage
[11] = 7 day post-injury, 50 mg/kg/day
[12] = 50 mg/kg/day oral, 50 mg/kg/day
[13] = 21 days post-injury, 50 mg/kg/day oral

Row | Compound | overall movements / all open-field parameters (heat map, distance, velocity, center frequency, rearing) [2] | immobility time in tail suspension test (CCI-injured mice [4]; 21 days post-injury) | Barnes maze latency (time taken to find the target hole) (TBI mice [7]) | Barnes maze number of errors (TBI mice [7]) | T-maze number of negative turns (TBI mice [8]) | T-maze number of positive turns (TBI mice [8]) | activation of astrocytes / astroglial inflammation in vivo (CCI-induced TBI mice [9]) | microglial activation in vivo (CCI-induced TBI mice [9]) | iNOS / iNOS-positive cells (CCI-induced TBI mice [9]) | GFAP-positive astrocytes (CCI-induced TBI mice [9]) | Iba1-positive microglia (CCI-induced TBI mice [9]) | level of iNOS protein / expression of iNOS (Western blot) (CCI-induced TBI mice [9]) | protein level of GFAP (Western blot) (CCI-induced TBI mice [9]) | protein level of Iba1 (Western blot) (CCI-induced TBI mice [9]) | also measured
1 | O=C(OCC(COC(=O)c1ccccc1)OC(=O)c1ccccc1)c1ccccc1 [GTB, Glyceryl Tribenzoate] | no significant change | significantly less immobility time | less time | less errors | lower number of negative turns | higher number of positive turns | inhibits | decreases | decreased | decrease | reduced | decreased | decrease | reduced | total lesion volume / size of lesion cavity (CCI-induced TBI mice [1]; H&E-stained sections, 50 mg/kg/day oral gavage): decrease; general locomotor activity / open-field behavior ([2]; 7 day post-injury): significant increase; latency to fall on rotarod (CCI-injured mice [3]; 7 day post-injury): increase in latency; immobility time in tail suspension test (CCI-injured mice [4]; 7 days post-injury): significantly less immobility time; beam walking, number of steps (CCI-injured mice [5]; [10]): no significant change; beam walking, time taken (CCI-injured mice [5]; [10]): no significant change; gait movement on beam runway (steps, time taken, foot slips) (CCI-injured mice [5]; 50 mg/kg/day oral): improved; grid runway, number of steps (CCI-injured mice [6]; [10]): no significant change; gait movement on grid runway (steps, time taken, foot misplacement) (CCI-injured mice [6]; 50 mg/kg/day oral): improved
2 | O=C([O-])c1ccccc1.[Na+] [NaB, Sodium benzoate] | significant differences in overall movements were not observed | significant improvement | less latency | fewer errors | lower number of negative turns | higher number of positive turns | attenuates | inhibits | inhibition of iNOS | decrease | decrease | decreases | Decrease and/or normalization | Decrease and/or normalization | total lesion volume / size of lesion cavity (CCI-induced TBI mice [1]; cresyl violet sections, 50 mg/kg/day oral): significantly reduced; structural-tissue integrity of damaged hippocampus (CCI-induced TBI mice [1]; oral treatment started 24 h after CCI): restored; general locomotor activity / open-field behavior [2, 11]: significant improvement; also recorded: improves; center frequency ([2]; open field, 7 day post-injury): Functional upgrading was clearly visible; distance traveled ([2]; open field, 7 day post-injury): Functional upgrading was clearly visible; rearing behavior ([2]; open field, 7 day post-injury): Functional upgrading was clearly visible; velocity ([2]; open field, 7 day post-injury): Functional upgrading was clearly visible; latency to fall on rotarod (CCI-injured mice [3]; [11]): prolonged latencies; also recorded: significantly improved; latency to fall on rotarod (CCI-injured mice [3]; 21 day post-injury, 50 mg/kg/day): prolonged latencies; also recorded: significantly improved; immobility time in tail suspension test (CCI-injured mice [4]; 7 days post-injury, 50 mg/kg/day): significantly less immobility time; also recorded: significant improvement; gait movement on beam runway (steps, time taken, foot slips) (CCI-injured mice [5]; [12]): significant improvement; also recorded: significant upgrade; also recorded: improved; beam walking performance (CCI-injured mice [5]; [13]): did not display significant protection; gait movement on grid runway (steps, time taken, foot misplacement) (CCI-injured mice [6]; [12]): significant improvement; also recorded: significant upgrade; also recorded: improvements; grid runway performance (CCI-injured mice [6]; [13]): did not display significant protection; hippocampus-dependent behaviors / cognitive performance (TBI mice [7]; NOR, Barnes maze and T maze, 21 days): enhanced cognitive performance
